Measured values published in article PMC11513924, “Addressing the Intracellular Vestibule of the Plasmodial Lactate Transporter PfFNT by p-Substituted Inhibitors Amplifies In Vitro Activity” (Journal of Medicinal Chemistry, 2024).

System: Plasmodium falciparum 3D7 parasites
Test: P. falciparum 3D7 culture growth assay in erythrocytes (in vitro activity)
Type: cell-based
Conditions: Plasmodium falciparum, 3D7, Erythrocyte, 48 h; 50 nM compound, % of untreated control; read-out: % Growth at 50 nM (in vitro, 3D7)
Method: The parasitemia was measured using an LSR II FACS (BD Biosciences) as described.[34],[35] Growth was assessed as % of untreated control. EC50 curves were plotted using Graph Pad Prism.
Transport assays in yeast were done in triplicate biological replicates. At least nine technical replicates were measured around the IC50 value, concentrations with no or full inhibition were determined from at least three technical replicates. […] IC50 and EC50 curves were fitted by the Hill equation with variable slope (Graph Pad Prism 10). Error bars denote ± SEM (for n ≥ 3) or ± range (for n = 2). […] Cytotoxicity was determined from biological triplicates; error is shown as SEM.

| SMILES | activity at 0.05 µM [%] |
| --- | --- |
| O=C(/C=C(\O)C(F)(F)C(F)(F)F)c1ccc(NC2CC2)nc1 [7k, 1-(6-(Cyclopropylamino)pyridin-3-yl)-4,4,5,5,5-pentafluoro-3-hydroxypent-2-en-1-one] | 44 |
| O=C(/C=C(\O)C(F)(F)C(F)(F)F)c1ccc(NC2CCC2)nc1 [7l, 1-(6-(Cyclobutylamino)pyridin-3-yl)-4,4,5,5,5-pentafluoro-3-hydroxypent-2-en-1-one] | 59 |
| O=C(/C=C(\O)C(F)(F)C(F)(F)F)c1ccc(NCC2CC2)nc1 [7m, 1-(6-((Cyclopropylmethyl)amino)pyridin-3-yl)-4,4,5,5,5-pentafluoro-3-hydroxypent-2-en-1-one] | 6 |
| CC(C)Nc1ccc(C(=O)/C=C(\O)C(F)(F)C(F)(F)F)cn1 [7n, 4,4,5,5,5-Pentafluoro-3-hydroxy-1-(6-(isopropylamino)pyridin-3-yl)pent-2-en-1-one] | 53 |
| CC(C)(C)Nc1ccc(C(=O)/C=C(\O)C(F)(F)C(F)(F)F)cn1 [7o, 1-(6-(tert-Butylamino)pyridin-3-yl)-4,4,5,5,5-pentafluoro-3-hydroxypent-2-en-1-one] | 97 |
| O=C(/C=C(\O)C(F)(F)C(F)(F)F)c1ccc(NCc2ccc(F)cc2)nc1 [7p, 4,4,5,5,5-Pentafluoro-1-(6-((4-fluorobenzyl)amino)pyridin-3-yl)-3-hydroxypent-2-en-1-one] | 37 |

Same assay, conditions: Plasmodium falciparum, 3D7, Erythrocyte, 48 h; 100 nM compound, % of untreated control; read-out: % Growth at 100 nM (in vitro, 3D7)

| SMILES | activity at 0.1 µM [%] |
| --- | --- |
| O=C(/C=C(\O)C(F)(F)C(F)(F)F)c1ccc(NC2CC2)nc1 [7k, 1-(6-(Cyclopropylamino)pyridin-3-yl)-4,4,5,5,5-pentafluoro-3-hydroxypent-2-en-1-one] | 11 |
| O=C(/C=C(\O)C(F)(F)C(F)(F)F)c1ccc(NC2CCC2)nc1 [7l, 1-(6-(Cyclobutylamino)pyridin-3-yl)-4,4,5,5,5-pentafluoro-3-hydroxypent-2-en-1-one] | 16 |
| O=C(/C=C(\O)C(F)(F)C(F)(F)F)c1ccc(NCC2CC2)nc1 [7m, 1-(6-((Cyclopropylmethyl)amino)pyridin-3-yl)-4,4,5,5,5-pentafluoro-3-hydroxypent-2-en-1-one] | 3 |
| CC(C)Nc1ccc(C(=O)/C=C(\O)C(F)(F)C(F)(F)F)cn1 [7n, 4,4,5,5,5-Pentafluoro-3-hydroxy-1-(6-(isopropylamino)pyridin-3-yl)pent-2-en-1-one] | 31 |
| CC(C)(C)Nc1ccc(C(=O)/C=C(\O)C(F)(F)C(F)(F)F)cn1 [7o, 1-(6-(tert-Butylamino)pyridin-3-yl)-4,4,5,5,5-pentafluoro-3-hydroxypent-2-en-1-one] | 97 |
| O=C(/C=C(\O)C(F)(F)C(F)(F)F)c1ccc(NCc2ccc(F)cc2)nc1 [7p, 4,4,5,5,5-Pentafluoro-1-(6-((4-fluorobenzyl)amino)pyridin-3-yl)-3-hydroxypent-2-en-1-one] | 7 |

Same assay, conditions: Plasmodium falciparum, 3D7, Erythrocyte, 48 h; 200 nM compound, % of untreated control; read-out: % Growth at 200 nM (in vitro, 3D7)

| SMILES | activity at 0.2 µM [%] |
| --- | --- |
| O=C(/C=C(\O)C(F)(F)C(F)(F)F)c1ccc(NC2CC2)nc1 [7k, 1-(6-(Cyclopropylamino)pyridin-3-yl)-4,4,5,5,5-pentafluoro-3-hydroxypent-2-en-1-one] | 5 |
| O=C(/C=C(\O)C(F)(F)C(F)(F)F)c1ccc(NC2CCC2)nc1 [7l, 1-(6-(Cyclobutylamino)pyridin-3-yl)-4,4,5,5,5-pentafluoro-3-hydroxypent-2-en-1-one] | 7 |
| O=C(/C=C(\O)C(F)(F)C(F)(F)F)c1ccc(NCC2CC2)nc1 [7m, 1-(6-((Cyclopropylmethyl)amino)pyridin-3-yl)-4,4,5,5,5-pentafluoro-3-hydroxypent-2-en-1-one] | 2 |
| CC(C)Nc1ccc(C(=O)/C=C(\O)C(F)(F)C(F)(F)F)cn1 [7n, 4,4,5,5,5-Pentafluoro-3-hydroxy-1-(6-(isopropylamino)pyridin-3-yl)pent-2-en-1-one] | 15 |
| CC(C)(C)Nc1ccc(C(=O)/C=C(\O)C(F)(F)C(F)(F)F)cn1 [7o, 1-(6-(tert-Butylamino)pyridin-3-yl)-4,4,5,5,5-pentafluoro-3-hydroxypent-2-en-1-one] | 93 |
| O=C(/C=C(\O)C(F)(F)C(F)(F)F)c1ccc(NCc2ccc(F)cc2)nc1 [7p, 4,4,5,5,5-Pentafluoro-1-(6-((4-fluorobenzyl)amino)pyridin-3-yl)-3-hydroxypent-2-en-1-one] | 0 |

Same assay, conditions: Plasmodium falciparum, 3D7, Erythrocyte; 50 nM compound; 100 minus % growth; read-out: inhibitory activity at 50 nM (in vitro, 3D7)

| SMILES | inhibition at 0.05 µM [%] |
| --- | --- |
| O=C(/C=C(\O)C(F)(F)C(F)(F)F)c1ccc(NCC2CC2)nc1 [7m, 1-(6-((Cyclopropylmethyl)amino)pyridin-3-yl)-4,4,5,5,5-pentafluoro-3-hydroxypent-2-en-1-one] | 94 |

Biological target: T1, PfFNT (Plasmodium falciparum, UniProt O77389)
T1 construct: expressed in transfected cells; membranes solubilized
T1 sequence (O77389 1-309): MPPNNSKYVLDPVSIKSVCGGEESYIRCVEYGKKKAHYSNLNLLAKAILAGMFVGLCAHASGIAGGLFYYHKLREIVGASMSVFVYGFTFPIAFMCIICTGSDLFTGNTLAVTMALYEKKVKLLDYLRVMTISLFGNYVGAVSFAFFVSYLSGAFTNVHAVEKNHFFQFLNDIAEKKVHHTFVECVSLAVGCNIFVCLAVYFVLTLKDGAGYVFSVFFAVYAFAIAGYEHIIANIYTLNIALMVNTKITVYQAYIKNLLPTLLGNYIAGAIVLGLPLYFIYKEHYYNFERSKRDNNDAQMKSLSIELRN
Test: Yeast-based PfFNT 14C-lactate transport assay
Type: cell-based
Conditions: 14C-lactate transport, PfFNT wild type; read-out: IC50 (transport, yeast)
Method: Lactate transport functionality of PfFNT was assayed as described before.[4] Briefly, Saccharomyces cerevisiae W303-1A jen1Δady2Δcells[32] (MATa, can1-100, ade2-loc, his3-11-15, leu2-3,-112, trp1-1-1, ura3-1, jen1::kanMX4, ady2::hphMX4) kindly provided by M. Casal expressing PfFNT was grown at 29 °C to an OD600 of 1 (±0.1). Harvested cells were resuspended to an OD600 of 50 (±5) in 50 mM HEPES/Tris, pH 6.8 (±0.1). 10–15 min prior to the assay, 80 μL of yeast suspension were added to 1 μL of DMSO with or without inhibitor in a 1.5 mL reaction tube at 18 °C. Twenty μL of L-lactate solution spiked with [1-^14C]-L-lactate (Hartmann Analytic) was added yielding a 1 mM inward gradient with 0.04 μCi label. Transport was stopped after 30 s by abrupt dilution with 1 mL of ice-cold water, vacuum filtration via GF/C filter membranes (Whatman), and washing with 7 mL of ice-cold water. The radio label was analyzed by liquid scintillation counting in 3 mL of scintillation cocktail (Rotiszint eco plus, Carl Roth) using a Packard TriCarb 2900 TR (PerkinElmer Inc.).
Transport assays in yeast were done in triplicate biological replicates. At least nine technical replicates were measured around the IC50 value, concentrations with no or full inhibition were determined from at least three technical replicates. EC50-values were determined from 2 to 4 biological replicates. IC50 and EC50 curves were fitted by the Hill equation with variable slope (Graph Pad Prism 10). Error bars denote ± SEM (for n ≥ 3) or ± range (for n = 2). For the EC50-value of 7a the error of the fitting of the curve is given. Cytotoxicity was determined from biological triplicates; error is shown as SEM.

| SMILES | IC50 [nM] |
| --- | --- |
| O=C(/C=C(\O)C(F)(F)C(F)(F)F)c1ccc(NC2CC2)nc1 [7k, 1-(6-(Cyclopropylamino)pyridin-3-yl)-4,4,5,5,5-pentafluoro-3-hydroxypent-2-en-1-one] | 190 ± 20 |
| O=C(/C=C(\O)C(F)(F)C(F)(F)F)c1ccc(NC2CCC2)nc1 [7l, 1-(6-(Cyclobutylamino)pyridin-3-yl)-4,4,5,5,5-pentafluoro-3-hydroxypent-2-en-1-one] | 260 ± 30 |
| O=C(/C=C(\O)C(F)(F)C(F)(F)F)c1ccc(NCC2CC2)nc1 [7m, 1-(6-((Cyclopropylmethyl)amino)pyridin-3-yl)-4,4,5,5,5-pentafluoro-3-hydroxypent-2-en-1-one] | 170 ± 10 |
| CC(C)Nc1ccc(C(=O)/C=C(\O)C(F)(F)C(F)(F)F)cn1 [7n, 4,4,5,5,5-Pentafluoro-3-hydroxy-1-(6-(isopropylamino)pyridin-3-yl)pent-2-en-1-one] | 150 ± 10 |
| CC(C)(C)Nc1ccc(C(=O)/C=C(\O)C(F)(F)C(F)(F)F)cn1 [7o, 1-(6-(tert-Butylamino)pyridin-3-yl)-4,4,5,5,5-pentafluoro-3-hydroxypent-2-en-1-one] | 370 ± 40 |
| O=C(/C=C(\O)C(F)(F)C(F)(F)F)c1ccc(NCc2ccc(F)cc2)nc1 [7p, 4,4,5,5,5-Pentafluoro-1-(6-((4-fluorobenzyl)amino)pyridin-3-yl)-3-hydroxypent-2-en-1-one] | 390 ± 30 |

Biological target: T1, PfFNT
Test: Fluorescence cross-correlation spectroscopy (FCCS) competition binding to solubilized PfFNT-GFP
Conditions: not given
Method: FCCS measurements were conducted and analyzed as before.[20],[30] Briefly, membranes of stably transfected cells expressing PfFNT with a C-terminal GFP (green) were solubilized. BH267.meta 2 fused with DY647 (red) was used as a tracer to monitor the binding of compounds in a competition assay. Assays were done in […] glass bottom plates (cat. no. PS96B-G175, SWISSCI, Switzerland) using a plate reader (Insight, Evotec Technologies, Germany) fitted with a U-Apo300 40× water immersion lens, NA 1.15 (Olympus, Japan). Excitation was done with an argon-ion laser (488 nm) and a helium–neon laser (633 nm). Fluorescence fluctuations were recorded 10 times for 5 s per sample and fitted using FCS+ plus Analyze (PerkinElmer software). Initially, IC50 values were determined from the concentration of the dual labeled complex titrated against a competitor in a range of 100 pM to 100 μM (Figure S1). Then, Ki values were calculated using the Cheng Prusoff equation[31] based on the previously determined KD value for the BH267.meta-DY647 tracer.[20]

| SMILES | Ki [nM] |
| --- | --- |
| O=C(/C=C(\O)C(F)(F)C(F)(F)F)c1ccc(NC2CC2)nc1 [7k, 1-(6-(Cyclopropylamino)pyridin-3-yl)-4,4,5,5,5-pentafluoro-3-hydroxypent-2-en-1-one] | 10 ± 2 |
| O=C(/C=C(\O)C(F)(F)C(F)(F)F)c1ccc(NC2CCC2)nc1 [7l, 1-(6-(Cyclobutylamino)pyridin-3-yl)-4,4,5,5,5-pentafluoro-3-hydroxypent-2-en-1-one] | 23 ± 7 |
| O=C(/C=C(\O)C(F)(F)C(F)(F)F)c1ccc(NCC2CC2)nc1 [7m, 1-(6-((Cyclopropylmethyl)amino)pyridin-3-yl)-4,4,5,5,5-pentafluoro-3-hydroxypent-2-en-1-one] | 18 ± 3 |
| CC(C)Nc1ccc(C(=O)/C=C(\O)C(F)(F)C(F)(F)F)cn1 [7n, 4,4,5,5,5-Pentafluoro-3-hydroxy-1-(6-(isopropylamino)pyridin-3-yl)pent-2-en-1-one] | 67 ± 11 |
| CC(C)(C)Nc1ccc(C(=O)/C=C(\O)C(F)(F)C(F)(F)F)cn1 [7o, 1-(6-(tert-Butylamino)pyridin-3-yl)-4,4,5,5,5-pentafluoro-3-hydroxypent-2-en-1-one] | 239 ± 101 |
| O=C(/C=C(\O)C(F)(F)C(F)(F)F)c1ccc(NCc2ccc(F)cc2)nc1 [7p, 4,4,5,5,5-Pentafluoro-1-(6-((4-fluorobenzyl)amino)pyridin-3-yl)-3-hydroxypent-2-en-1-one] | 16 ± 3 |
